Tests used:
[1] = test system: TGF-β-induced EMT in HaCaT cells; assay: Immunofluorescence of F-actin and E-cadherin in HaCaT cells with pathway inhibitors; type: cell-based, human; conditions: for effect mediated by CD109 siRNA transfection on actin stress fibers appearance and relocalization of E-cadherin / effect on EMT markers in the absence of TGF-β: 0.5 μM SB431542, 1 μM SB203580, 10 μM U0126; for effect on EMT markers in the absence of TGF-β: data not shown
[2] = test system: TGF-β-induced fibronectin and Slug expression in HaCaT cells; assay: Western blot for fibronectin and Slug in HaCaT cells with pathway inhibitors; type: cell-based, human; conditions: for effect of CD109 knock-down on TGF-β-induced Slug expression: 100 pM TGF-β1, 4 hrs, 0.5 μM SB431542, 10 μM U0126; for fibronectin production: CD109 siRNA HaCaT cells, 100 pM TGF-β1, 16 hrs, 0.5 μM SB431542, 1 μM SB203580, 10 μM U0126
[3] = test system: TGF-β-induced migration of HaCaT cells; assay: Scratch assay in HaCaT cells with pathway inhibitors; type: cell-based, human; conditions: 100 pM TGF-β1, 36 hrs; 0.5 μM SB431542, 1 μM SB203580, 10 μM U0126
Experimental: (FIG. 18A) HaCaT cells transfected with control or CD109 siRNA were scratched and treated with or without 100 pM TGF-β1, 0.5 μM SB431542, 1 μM SB203580 and/or 10 μM U0126 for 36 hrs. Dotted line: wound margin at 0 hr, regular line: wound margin at 36 hrs.
Confluent monolayers of HaCaT or A431 cells were wounded by scrapping the cells with a 200 μl pipette tip. Cells were then incubated with 100 pM TGF-β1, in presence or absence of 10 μM U0126, 1 μM SB203580, 0.5 μM SB431542 in serum free medium for 24-48 hrs. Pictures were taken at the same spot at 0 hr, 24 hrs and 48 hrs. The cell-free area (wound) area was measured using ImageJ™ software and the percentage of original wound area filled with keratinocytes was calculated. At least 3 independents series of experiments were performed in triplicates.
Finally, it was determined whether CD109's effect on migration was also mediated by the SMAD2/3 and MAPK pathways.

[4] = test system: TGF-β-induced epithelial-mesenchymal transition (EMT) response in squamous cell carcinoma (A431) cells; assay: Immunoblot of EMT markers in A431 cells; type: cell-based; conditions: 10 nM peptide, 100 pM TGF-b, 24 hrs (FIG. 33)
Experimental: (FIG. 26A) Immunoblot analysis was carried out using cell lysates of A431 cells following incubation with TGF-β, P16, or scrambled control (P16.2) as indicated to determine expression of proteins involved in the EMT response. (FIG. 26B) Densitometry analysis was subsequently performed using the developed immunoblot to illustrate the relative expression of each protein as a function as P16 concentration as indicated.
A431 cancer cells treated with 10 nM of P16.2 (negative peptide control), P12, P16 or PA in the absence or presence of 100 pM TGF-b, followed by 24 hrs of incubation. Cells lysates were analyzed by Western blot for the expression of Fibronectin (mesenchymal marker), Snail and Twist (EMT markers). Actin expression was used as loading control.

[5] = test system: bleomycin-induced skin fibrosis; assay: Bleomycin-induced skin fibrosis (scleroderma) mouse model; type: in vivo
Experimental: Wild type mice were treated with bleomycin ([…]) to induce skin fibrosis or PBS (negative control). Mice were treated with CD109 ([…]), P16 ([…]), or PBS by 100 μL subcutaneous injection every other day for 28 days for a total of 14 injections.
(§1) Mice were injected intradermally with bleomycin (5 mg) in […] PBS or PBS alone every second day for 28 days. Mice were co-injected without or with 1.0 mg recombinant CD109 protein or P16 peptide every second day for 28 days (14 mg total). Skin tissue was harvested and immunohistochemical analysis was performed for the detection of Fibronectin, α-sma, CTGF and Type-1 Collagen. Representative images of sections of skin derived from CD109 and p16 treated mice on day 28 after initial bleomycin or PBS treatment are shown. A total of 4-6 different mice per treatment group were analyzed. Original magnification x 20.
as §1, with “phospho-Smad2, phospho-Smad1” for “Fibronectin, α-sma, CTGF”, “TGF-β levels.” for “Type-1 Collagen.”

[6] = test system: cancer stem cells (CD133 positive cells), epidermoid A431; assay: Flow cytometry of CD133 positive cells, A431; type: cell-based; conditions: 10 nM, 100 pM TGF-b1, 24 hours (FIG. 39)
Experimental: (§2) A431 cancer cells (8000 cells) were seeded on a BioCoat™ Matrigel® Invasion Chamber and treated with 10 nM of P16.2 (negative peptide control), P16 or PA in the absence or presence of 100 pM TGF-b, followed by 24 hrs of incubation. Invasive cells (in the lower chambers) were stained by crystal violet dye, photographed and counted. Representative photos (A) and statistical plots of invasion (B) are shown. The data are shown as mean±SD of the number of invasive cells for three independent experiments. **P<0.01 and ***P<0.001 as compared with controls. […] Squamous cell carcinoma (epidermoid A431 and head and neck FaDu) cells were stimulated with 100 pM of TGF-b1, then treated with 10 nM of peptide 16.2, P16, PA or CD109 for 24 hours. Cells were analysed by Flow cytometry and CD133 positive cell population, which represent cancer stem cell population, were quantified.

[7] = test system: cancer stem cells (CD133 positive cells), head and neck FaDu; assay: Flow cytometry of CD133 positive cells, FaDu; type: cell-based; conditions: 10 nM, 100 pM TGF-b1, 24 hours (FIG. 39)
Experimental: as §2

[8] = co-injected with bleomycin every second day for 28 days (FIG. 37)

| Compound | effect mediated by CD109 siRNA transfection on actin stress fibers appearance and relocalization of E-cadherin ([1]; 100 pM TGF-β1, 36 hrs) | effect on EMT markers in the absence of TGF-β [1] | effect of CD109 knock-down on TGF-β-induced Slug expression [2] | fibronectin production [2] | increase of TGF-β-induced cell migration by CD109 knock-down [3] | also measured |
| --- | --- | --- | --- | --- | --- | --- |
| N#CC(=C(/N)Sc1ccccc1N)/C(C#N)=C(\N)Sc1ccccc1N [Peptide U0126, U0126] | reduces (but does not abrogate) | no effect | abrogated | reduced | partially reversed | – |
| NC(=O)c1ccc(-c2nc(-c3ccc4c(c3)OCO4)c(-c3ccccn3)[nH]2)cc1 [SB431542] | reduces (but does not abrogate) | no effect | abrogated | totally abrogated | partially reversed | appearance of actin stress fibers in control siRNA transfected cells ([1]; 100 pM TGF-β1, 36 hrs, 0.5 μM SB431542): totally prevents |
| ETWIWLDTNMGS [Peptide P12] | – | – | – | – | – | inhibition of TGF-b induced EMT response (Fibronectin, Snail, Twist) [4]: not |
| Recombinant CD109: recombinant CD109 protein | – | – | – | – | – | SMAD1 phosphorylation in skin (immunohistochemistry) [5, 8]: enhancing; SMAD2 phosphorylation in skin (immunohistochemistry) [5, 8]: reduces; TGF-β expression in skin (immunohistochemistry) [5, 8]: reduces; extracellular matrix production (Fibronectin, α-sma, CTGF, Type-1 Collagen, immunohistochemistry) ([5]; co-injected with bleomycin every second day for 28 days, skin on day 28 (FIG. 36)): reduces; number of cancer stem cells (CD133 positive cells), A431 [6]: inhibit; number of cancer stem cells (CD133 positive cells), FaDu [7]: inhibit |

Reference: patent publication US11787850B2, “Peptidic TGF-beta antagonists” (priority 2015, dated 2023)
